Data from ChEMBL document CHEMBL5463725, “Data for DCP probe BAY-277” (2023).

Assays:
[1] = target: 5-hydroxytryptamine receptor 2B (Homo sapiens) (UniProt P41595); test: Inhibition of Serotonin (5-Hydroxytryptamine) 5-HT2B at 10.0 µM in the Eurofins Panlabs Safety Screen; conditions: Compound concentration 10.0 uM
[2] = target: 5-hydroxytryptamine receptor 2A (Homo sapiens) (UniProt P28223); test: Inhibition of Serotonin (5-Hydroxytryptamine) 5-HT2A at 10.0 µM in the Eurofins Panlabs Safety Screen; conditions: Compound concentration 10.0 uM
[3] = target: Histamine H3 receptor (Homo sapiens, UniProt Q9Y5N1); test: GPCRScan assay: inhibition of H3; parameters: radioligand conc. used [nm] 0.5 – 1.0, parental cells HEK Flp-In
[4] = target: GABA-A receptor; anion channel (Rattus norvegicus) (UniProt O09028+P15431+P18506+P18508+P19969+P20236+P23574+P23576+P28471+P28473+P30191+P62813+P63079+P63138+Q91ZM7+Q9ES14); conditions: Compound concentration 10.0 uM
[5] = target: Growth hormone secretagogue receptor type 1 (Homo sapiens) (UniProt Q92847); test: Inhibition of Growth Hormone Secretagogue (GHS, Ghrelin) at 10.0 µM in the Eurofins Panlabs Safety Screen; conditions: Compound concentration 10.0 uM
[6] = target: T1, Muscarinic acetylcholine receptor M2 (Homo sapiens, UniProt P08172); test: GPCRScan assay: inhibition of M2; parameters: radioligand conc. used [nm] 0.2 – 1.0, parental cells stable CHO
T1 sequence (P08172 whole entry): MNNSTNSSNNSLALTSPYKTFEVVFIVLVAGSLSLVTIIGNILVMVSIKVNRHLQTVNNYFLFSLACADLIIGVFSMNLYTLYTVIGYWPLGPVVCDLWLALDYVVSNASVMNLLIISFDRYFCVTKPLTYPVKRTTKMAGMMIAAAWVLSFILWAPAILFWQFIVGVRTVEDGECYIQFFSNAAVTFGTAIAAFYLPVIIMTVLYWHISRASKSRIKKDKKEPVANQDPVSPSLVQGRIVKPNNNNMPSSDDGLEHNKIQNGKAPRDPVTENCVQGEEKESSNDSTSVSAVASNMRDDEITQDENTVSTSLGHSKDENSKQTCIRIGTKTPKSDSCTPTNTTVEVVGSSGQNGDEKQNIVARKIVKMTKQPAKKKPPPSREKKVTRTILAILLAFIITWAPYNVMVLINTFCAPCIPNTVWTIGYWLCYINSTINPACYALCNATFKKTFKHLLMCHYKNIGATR

[7] = target: Muscarinic acetylcholine receptor M3 (Homo sapiens, UniProt P20309); test: GPCRScan assay: inhibition of M3; parameters: radioligand conc. used [nm] 0.3 – 1.0, parental cells stable CHO
[8] = target: GABA B receptor (Rattus norvegicus) (UniProt Q9Z0U4+O88871); test: Inhibition of GABAB, Non-Selective at 10.0 µM in the Eurofins Panlabs Safety Screen; type: protein-complex assay; conditions: Compound concentration 10.0 uM
[9] = target: Acetylcholinesterase (Homo sapiens) (UniProt P22303); test: Inhibition of Cholinesterase, Acetyl, ACES at 10.0 µM in the Eurofins Panlabs Safety Screen; conditions: Compound concentration 10.0 uM
[10] = target: Sigma intracellular receptor 2 (Homo sapiens, UniProt Q5BJF2); test: GPCRScan assay: inhibition of Sigma 2; parameters: radioligand conc. used [nm] 5.0, parental cells HEKT
[11] = target: Leukotriene C4 synthase (Cavia porcellus) (UniProt A6XA80); test: Inhibition of Leukotriene LTC4 Synthase at 10.0 µM in the Eurofins Panlabs Safety Screen; conditions: Compound concentration 10.0 uM
[12] = target: D(1A) dopamine receptor (Homo sapiens) (UniProt P21728); conditions: Compound concentration 10.0 uM
[13] = target: T2, Muscarinic acetylcholine receptor M1 (Homo sapiens, UniProt P11229); test: GPCRScan assay: inhibition of M1; parameters: radioligand conc. used [nm] 0.3 – 1.2, parental cells stable CHO
T2 sequence (P11229 whole entry): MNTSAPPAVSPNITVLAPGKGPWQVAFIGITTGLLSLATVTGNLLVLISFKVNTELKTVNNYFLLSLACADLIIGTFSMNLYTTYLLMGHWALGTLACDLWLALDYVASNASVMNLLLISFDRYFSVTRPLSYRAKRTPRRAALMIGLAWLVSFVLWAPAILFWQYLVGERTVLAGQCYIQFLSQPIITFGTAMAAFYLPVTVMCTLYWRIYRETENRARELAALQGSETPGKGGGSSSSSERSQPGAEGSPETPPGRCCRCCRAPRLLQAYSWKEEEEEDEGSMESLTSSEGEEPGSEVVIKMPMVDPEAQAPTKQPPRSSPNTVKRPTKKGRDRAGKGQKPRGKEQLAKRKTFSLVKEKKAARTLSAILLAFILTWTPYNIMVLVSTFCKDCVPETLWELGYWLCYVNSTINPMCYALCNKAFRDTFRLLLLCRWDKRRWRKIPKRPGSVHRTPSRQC

[14] = target: TGF-beta receptor type-2 (Homo sapiens) (UniProt P37173); test: Inhibition of TGFBR2(h) at 10.0 µM in the Eurofins Kinase panel; conditions: Compound concentration 10.0 uM
[15] = target: Sodium-dependent noradrenaline transporter (Homo sapiens) (UniProt P23975); conditions: Compound concentration 10.0 uM
[16] = target: T3, 5-hydroxytryptamine receptor 1A (Homo sapiens) (UniProt P08908); test: Inhibition of Serotonin (5-Hydroxytryptamine) 5-HT1A at 10.0 µM in the Eurofins Panlabs Safety Screen; conditions: Compound concentration 10.0 uM
T3 sequence (whole entry): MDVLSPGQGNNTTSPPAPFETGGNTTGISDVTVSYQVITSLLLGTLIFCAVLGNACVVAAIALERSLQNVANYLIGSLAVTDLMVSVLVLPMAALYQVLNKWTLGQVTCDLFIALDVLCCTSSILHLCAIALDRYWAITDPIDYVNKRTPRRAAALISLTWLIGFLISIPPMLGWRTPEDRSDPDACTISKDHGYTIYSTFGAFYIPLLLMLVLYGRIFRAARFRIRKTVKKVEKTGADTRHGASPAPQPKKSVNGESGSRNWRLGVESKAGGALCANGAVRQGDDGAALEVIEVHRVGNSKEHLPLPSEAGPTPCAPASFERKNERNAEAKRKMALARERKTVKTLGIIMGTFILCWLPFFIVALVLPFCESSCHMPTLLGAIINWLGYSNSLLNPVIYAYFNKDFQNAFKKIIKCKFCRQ

[17] = target: D(2) dopamine receptor (Homo sapiens) (UniProt P14416); conditions: Compound concentration 10.0 uM
[18] = target: Alpha-1D adrenergic receptor (Homo sapiens) (UniProt P25100); conditions: Compound concentration 10.0 uM
Chain of Alpha-1D adrenergic receptor (Homo sapiens) (P25100 whole entry): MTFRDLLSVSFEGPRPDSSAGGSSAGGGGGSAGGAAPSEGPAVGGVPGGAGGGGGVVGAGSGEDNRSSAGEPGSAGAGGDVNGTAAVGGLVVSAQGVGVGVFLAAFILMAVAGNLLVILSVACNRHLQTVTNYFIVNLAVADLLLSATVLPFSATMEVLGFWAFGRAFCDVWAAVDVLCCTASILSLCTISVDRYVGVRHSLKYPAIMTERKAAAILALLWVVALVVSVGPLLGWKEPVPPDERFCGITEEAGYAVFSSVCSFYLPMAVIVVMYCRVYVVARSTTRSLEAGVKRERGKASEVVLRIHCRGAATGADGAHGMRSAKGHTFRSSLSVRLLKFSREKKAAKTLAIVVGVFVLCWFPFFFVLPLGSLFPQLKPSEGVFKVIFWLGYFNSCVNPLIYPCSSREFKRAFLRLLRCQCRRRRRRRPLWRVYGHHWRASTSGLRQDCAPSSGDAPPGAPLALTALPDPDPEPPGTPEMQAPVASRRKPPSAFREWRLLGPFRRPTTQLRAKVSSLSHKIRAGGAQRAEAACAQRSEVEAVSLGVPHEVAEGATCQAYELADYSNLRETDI

Chain of Sodium-dependent noradrenaline transporter (Homo sapiens) (P23975 whole entry): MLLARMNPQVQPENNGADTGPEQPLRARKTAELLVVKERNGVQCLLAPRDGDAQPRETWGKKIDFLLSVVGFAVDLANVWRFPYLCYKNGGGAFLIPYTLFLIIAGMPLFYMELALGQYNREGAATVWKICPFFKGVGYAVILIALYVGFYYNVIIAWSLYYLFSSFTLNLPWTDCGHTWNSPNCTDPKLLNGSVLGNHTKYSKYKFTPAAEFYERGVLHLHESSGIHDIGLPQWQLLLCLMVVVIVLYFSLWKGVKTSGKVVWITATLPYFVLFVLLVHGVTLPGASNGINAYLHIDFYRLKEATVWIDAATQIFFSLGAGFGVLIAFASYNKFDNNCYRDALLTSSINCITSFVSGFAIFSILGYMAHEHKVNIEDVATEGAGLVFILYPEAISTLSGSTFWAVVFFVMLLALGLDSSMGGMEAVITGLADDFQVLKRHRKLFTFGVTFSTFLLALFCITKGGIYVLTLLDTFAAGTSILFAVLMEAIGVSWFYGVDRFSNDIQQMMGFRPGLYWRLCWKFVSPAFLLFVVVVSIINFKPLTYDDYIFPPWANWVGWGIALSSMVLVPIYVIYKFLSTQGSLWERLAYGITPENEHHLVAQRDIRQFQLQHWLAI
Chain of D(1A) dopamine receptor (Homo sapiens) (P21728 whole entry): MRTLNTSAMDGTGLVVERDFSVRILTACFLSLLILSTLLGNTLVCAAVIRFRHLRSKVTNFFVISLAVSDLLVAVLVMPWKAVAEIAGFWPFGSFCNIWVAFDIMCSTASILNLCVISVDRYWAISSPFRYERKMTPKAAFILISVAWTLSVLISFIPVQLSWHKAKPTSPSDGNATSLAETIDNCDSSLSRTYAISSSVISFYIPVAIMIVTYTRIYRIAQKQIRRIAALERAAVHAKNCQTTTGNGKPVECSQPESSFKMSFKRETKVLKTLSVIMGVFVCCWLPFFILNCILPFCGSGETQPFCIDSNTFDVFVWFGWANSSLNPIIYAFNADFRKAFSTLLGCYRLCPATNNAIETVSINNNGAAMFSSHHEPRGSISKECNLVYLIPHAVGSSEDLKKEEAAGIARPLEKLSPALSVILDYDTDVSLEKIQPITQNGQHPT
Chain of D(2) dopamine receptor (Homo sapiens) (P14416 whole entry): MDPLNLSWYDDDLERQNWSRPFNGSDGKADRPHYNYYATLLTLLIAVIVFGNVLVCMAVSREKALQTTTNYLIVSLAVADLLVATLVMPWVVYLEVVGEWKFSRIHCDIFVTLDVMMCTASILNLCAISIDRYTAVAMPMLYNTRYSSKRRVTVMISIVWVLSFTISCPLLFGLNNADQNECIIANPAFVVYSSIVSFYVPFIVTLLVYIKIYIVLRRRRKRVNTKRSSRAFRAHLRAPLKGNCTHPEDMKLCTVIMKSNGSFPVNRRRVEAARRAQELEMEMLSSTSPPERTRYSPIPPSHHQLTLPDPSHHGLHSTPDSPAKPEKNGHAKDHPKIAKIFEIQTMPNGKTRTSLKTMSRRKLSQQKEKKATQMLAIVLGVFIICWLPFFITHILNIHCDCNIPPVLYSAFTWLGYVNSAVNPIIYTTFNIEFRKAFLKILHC
Chain of Muscarinic acetylcholine receptor M3 (P20309 whole entry): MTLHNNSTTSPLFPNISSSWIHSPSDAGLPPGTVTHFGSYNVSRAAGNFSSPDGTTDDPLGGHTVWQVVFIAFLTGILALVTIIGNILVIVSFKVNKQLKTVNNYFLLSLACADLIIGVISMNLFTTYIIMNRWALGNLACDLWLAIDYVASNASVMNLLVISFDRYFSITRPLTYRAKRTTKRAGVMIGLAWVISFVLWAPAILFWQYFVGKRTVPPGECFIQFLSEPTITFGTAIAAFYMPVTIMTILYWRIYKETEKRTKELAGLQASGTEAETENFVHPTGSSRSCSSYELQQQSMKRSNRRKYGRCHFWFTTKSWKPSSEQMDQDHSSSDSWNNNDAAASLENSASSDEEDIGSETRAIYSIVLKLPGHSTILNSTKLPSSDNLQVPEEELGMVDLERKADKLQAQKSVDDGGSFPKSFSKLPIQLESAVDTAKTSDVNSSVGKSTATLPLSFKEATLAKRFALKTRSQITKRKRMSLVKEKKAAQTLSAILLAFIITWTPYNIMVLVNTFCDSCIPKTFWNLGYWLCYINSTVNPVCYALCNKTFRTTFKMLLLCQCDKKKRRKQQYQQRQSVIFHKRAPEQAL
Chain of Histamine H3 receptor (Q9Y5N1 whole entry): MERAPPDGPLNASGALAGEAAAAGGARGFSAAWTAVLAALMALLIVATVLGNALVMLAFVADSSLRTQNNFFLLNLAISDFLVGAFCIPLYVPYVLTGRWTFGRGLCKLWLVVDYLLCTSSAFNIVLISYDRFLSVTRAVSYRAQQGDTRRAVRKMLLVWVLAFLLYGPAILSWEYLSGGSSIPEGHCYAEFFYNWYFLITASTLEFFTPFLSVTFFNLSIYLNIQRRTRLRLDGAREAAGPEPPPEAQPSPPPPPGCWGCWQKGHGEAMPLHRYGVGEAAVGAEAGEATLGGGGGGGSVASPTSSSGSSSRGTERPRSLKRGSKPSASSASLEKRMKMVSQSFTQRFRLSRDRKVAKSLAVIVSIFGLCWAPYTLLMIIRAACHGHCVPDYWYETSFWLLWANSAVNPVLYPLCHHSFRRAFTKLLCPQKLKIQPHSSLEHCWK
Chain of Sigma intracellular receptor 2 (Q5BJF2 whole entry): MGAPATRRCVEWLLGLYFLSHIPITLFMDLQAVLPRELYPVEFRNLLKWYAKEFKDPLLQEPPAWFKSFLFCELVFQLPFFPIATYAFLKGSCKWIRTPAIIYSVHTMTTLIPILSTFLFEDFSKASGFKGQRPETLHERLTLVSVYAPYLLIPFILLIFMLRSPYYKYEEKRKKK
Chain of 5-hydroxytryptamine receptor 2B (Homo sapiens) (P41595 whole entry): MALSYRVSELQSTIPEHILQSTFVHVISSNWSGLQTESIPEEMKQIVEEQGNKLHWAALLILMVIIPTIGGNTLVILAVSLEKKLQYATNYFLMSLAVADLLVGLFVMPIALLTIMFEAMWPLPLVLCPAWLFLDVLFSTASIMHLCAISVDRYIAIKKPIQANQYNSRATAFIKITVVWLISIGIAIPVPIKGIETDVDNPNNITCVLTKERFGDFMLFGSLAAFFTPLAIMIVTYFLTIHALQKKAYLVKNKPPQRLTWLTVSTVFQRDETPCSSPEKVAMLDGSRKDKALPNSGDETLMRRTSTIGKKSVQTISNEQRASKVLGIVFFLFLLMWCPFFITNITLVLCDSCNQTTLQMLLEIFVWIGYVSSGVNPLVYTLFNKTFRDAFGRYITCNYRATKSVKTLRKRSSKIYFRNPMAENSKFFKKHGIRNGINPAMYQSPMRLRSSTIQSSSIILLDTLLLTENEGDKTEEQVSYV
Chain of Leukotriene C4 synthase (Cavia porcellus) (A6XA80 whole entry): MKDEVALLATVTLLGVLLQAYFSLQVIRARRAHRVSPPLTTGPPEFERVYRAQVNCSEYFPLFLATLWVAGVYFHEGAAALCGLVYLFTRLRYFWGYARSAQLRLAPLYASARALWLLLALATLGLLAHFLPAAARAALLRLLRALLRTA
Chain of Growth hormone secretagogue receptor type 1 (Homo sapiens) (Q92847 whole entry): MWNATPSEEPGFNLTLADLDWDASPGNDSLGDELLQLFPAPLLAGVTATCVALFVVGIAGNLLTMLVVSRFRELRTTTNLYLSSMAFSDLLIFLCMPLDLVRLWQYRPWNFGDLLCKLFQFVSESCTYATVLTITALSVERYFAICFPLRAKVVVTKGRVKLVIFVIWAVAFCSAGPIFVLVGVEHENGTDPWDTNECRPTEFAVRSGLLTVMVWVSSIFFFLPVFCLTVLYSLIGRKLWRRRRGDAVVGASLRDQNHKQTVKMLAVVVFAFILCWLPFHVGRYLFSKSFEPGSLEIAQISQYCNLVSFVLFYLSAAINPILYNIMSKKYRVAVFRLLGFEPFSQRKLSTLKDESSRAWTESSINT
Chain of TGF-beta receptor type-2 (Homo sapiens) (P37173 whole entry): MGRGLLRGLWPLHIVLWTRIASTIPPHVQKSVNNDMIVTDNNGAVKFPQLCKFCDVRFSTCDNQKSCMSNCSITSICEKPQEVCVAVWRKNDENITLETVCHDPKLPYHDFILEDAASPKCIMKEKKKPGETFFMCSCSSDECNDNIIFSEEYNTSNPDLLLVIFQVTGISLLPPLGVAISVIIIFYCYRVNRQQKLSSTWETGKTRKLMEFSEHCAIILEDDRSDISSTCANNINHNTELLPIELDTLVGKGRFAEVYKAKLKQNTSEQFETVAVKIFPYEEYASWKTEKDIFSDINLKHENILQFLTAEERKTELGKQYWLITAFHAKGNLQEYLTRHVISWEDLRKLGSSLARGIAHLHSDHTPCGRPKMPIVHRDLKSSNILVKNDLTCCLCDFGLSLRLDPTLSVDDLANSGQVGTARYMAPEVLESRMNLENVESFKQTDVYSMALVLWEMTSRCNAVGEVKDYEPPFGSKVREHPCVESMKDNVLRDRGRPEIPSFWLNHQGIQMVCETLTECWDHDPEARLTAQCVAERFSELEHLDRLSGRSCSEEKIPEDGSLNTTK

| Structure (SMILES) | inhibition [1] [%] | inhibition [2] [%] | Ki ([3]; read-out: Ki) [nM] | Ki ([3]; read-out: pKi (converted)) [nM] | inhibition [4] [%] | inhibition [5] [%] | Ki ([6]; read-out: Ki) [nM] | Ki ([6]; read-out: pKi (converted)) [nM] | Ki ([7]; read-out: Ki) [nM] | Ki ([7]; read-out: pKi (converted)) [nM] | inhibition [8] [%] | inhibition [9] [%] | Ki ([10]; read-out: Ki) [nM] | Ki ([10]; read-out: pKi (converted)) [nM] | inhibition [11] [%] | inhibition [12] [%] | Ki ([13]; read-out: Ki) [nM] | Ki ([13]; read-out: pKi (converted)) [nM] | inhibition [14] [%] | inhibition [15] [%] | other results |
| --- | --- | --- | --- | --- | --- | --- | --- | --- | --- | --- | --- | --- | --- | --- | --- | --- | --- | --- | --- | --- | --- |
| O=C1NCCCC1N1Cc2cc(C3CCN(C(=O)CCCCCN4CCC(c5ccc(Oc6nn7cnnc7c7c6CCCC7)cc5)CC4)CC3)ccc2C1=O (stereo unspecified) | 10 | 39 | 73.2 | 72.4 | 44.6 | 5 | 1070 | 1050 | 1890 | 1860 | 22 | 38 | 1140 | 977 | 15 | 8.56 | 2190 | 2190 | 11.3 | 4.02 | inhibition [16]: 6%; inhibition [17]: 21.7%; inhibition [18]: 8.76% |
| O=C1CCC(N2Cc3cc(C4CCN(C(=O)CCCCCN5CCC(c6ccc(Oc7nn8cnnc8c8c7CCCC8)cc6)CC5)CC4)ccc3C2=O)C(=O)N1 (stereo unspecified) | 41 | 35 | 72.8 | 70.8 | 36.6 | 2 | 677 | 676 | 2260 | 2090 | 15 | 45 | 867 | 832 | 2 | 5.21 | 1670 | 1660 | 12.7 | 11.7 | inhibition [16]: 25%; inhibition [17]: 20.9%; inhibition [18]: 19.8% |
